Earlier results as cited in patent publication US9241502B2, “Animal feed compositions capable of reducing the incidence of fescue toxicosis in mammals” (priority 2005, dated 2016).

Test system: lactating dairy cattle
Conditions: as a single ingredient

In the case of Vitamin E, the “effectiveness against fescue toxicosis” value is listed as “not found to be effective”.
